Results as given in patent US5021562A, “Method for azide displacement of α-triflates of 1,5-lactones” (Monsanto Company, priority 1990, dated 1991).

How the values were obtained:
Type in all cases: biochemical
human α-mannosidases = experiment: Inhibition of human α-mannosidases (overall statement, glycosidase panel)
From the text: (§1) The relative potencies of these compounds as fucosidase inhibitors may be understood by considering them as analogues of α-L-fucose; all three compounds have the correct chirality of the secondary hydroxyl groups - the minimum requirement for inhibition of α-fucosidase. […] All the compounds are weaker inhibitors of α-fucosidase than is deoxyfuconojirimycin, since they all lack a lipophilic methyl substituent with correct configuration.

human liver α-fucosidase = target: T1, human liver α-fucosidase (Homo sapiens, UniProt P04066); experiment: Inhibition of human liver α-fucosidase
T1 construct: from tissue; host or cells: human liver
T1 sequence (P04066 32-466): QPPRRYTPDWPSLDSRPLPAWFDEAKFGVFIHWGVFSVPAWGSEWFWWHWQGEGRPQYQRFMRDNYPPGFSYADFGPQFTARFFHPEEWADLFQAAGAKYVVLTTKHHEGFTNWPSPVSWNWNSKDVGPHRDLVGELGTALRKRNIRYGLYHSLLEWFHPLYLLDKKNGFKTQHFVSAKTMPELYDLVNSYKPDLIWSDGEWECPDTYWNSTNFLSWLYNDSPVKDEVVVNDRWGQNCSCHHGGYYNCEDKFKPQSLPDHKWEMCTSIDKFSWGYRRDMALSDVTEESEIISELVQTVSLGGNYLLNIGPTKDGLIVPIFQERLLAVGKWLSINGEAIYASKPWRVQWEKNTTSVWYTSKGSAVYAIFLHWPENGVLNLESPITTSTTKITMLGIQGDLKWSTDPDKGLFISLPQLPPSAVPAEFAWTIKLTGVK
Experimental: % Inhibition of human liver α-fucosidase and α-mannosidase
catalysed hydrolysis of 4-umbelliferyl pyrranosides at
1 mM concentration of inhibitor

β-mannosidase = experiment: Inhibition of human liver β-mannosidase (glycosidase panel)
From the text: as §1

inhibition of α-mannosidases (in words) (human α-mannosidases) | inhibition of α-fucosidase (in words) (human liver α-fucosidase) | Structure (SMILES) | inhibition of β-mannosidase (in words) (β-mannosidase)
did not inhibit any α-mannosidase | powerful inhibitors of α-fucosidase | OC[C@@H]1N[C@H](CO)[C@@H](O)[C@@H](O)[C@@H]1O [6-epi-HMJ, 2,6-dideoxy-2,6-imino-L-glycero-D-talo-heptitol] | 
very similar | only a weak inhibitor | OC[C@H]1N[C@H](CO)[C@@H](O)C(O)[C@@H]1O (stereo partly drawn) [α-HMJ, 2,6-Dideoxy-2,6-imino-D-glycero-D-talo-heptitol] | Neither compound inhibited β-mannosidase

Structure (SMILES) | inhibition of α-mannosidases (in words) (human α-mannosidases) | inhibition of α-fucosidase (in words) (human liver α-fucosidase) | inhibition of β-mannosidase (in words) (β-mannosidase)
OC[C@H]1NC[C@@H](O)[C@@H](O)[C@@H]1O [DMJ, reference compound] | very similar | powerful inhibitors of α-fucosidase | Neither compound inhibited β-mannosidase
